Data published in article PMC7655512 (Cell stem cell, 2020).
Each block holds one compound with its values, some of them ahead of it.

Assays:
SCN5A L409P/R588 mutant = SCN5A L409P/R588 mutant (Homo sapiens, UniProt Q14524, H558R/L409P); assay: Automated planar patch clamp of LQT3 mutant channel in HEK293T cells; format: cell-based; conditions: for preference of block between INaP and INaL: result in words
[1] = system: genetic and pharmacological LQT3 hiPSC-CM models; assay: Optical voltage assay across genetic and pharmacological LQT3 hiPSC-CM models; format: cell-based, human; conditions: for general APD effect at low or high doses: summary over all models, result in words
[2] = system: LQT3 SCN5A N406K hiPSC-CMs; assay: Optical voltage assay, second genetic LQT3 model; format: cell-based, human; conditions: result in words
[3] = system: HD.113 hiPSC-CMs treated with ATX-II; assay: High dose ATX-II induced arrhythmia in healthy donor hiPSC-CMs; format: cell-based, human; conditions: ATX-II 1 μM; result in words
HD.CDI hiPSC-CMs = assay: High throughput optical action potential recording, healthy donor hiPSC-CMs; conditions: result in words

SCN5A L409P/R588 mutant, sequence (Q14524 whole entry L409P/H558R): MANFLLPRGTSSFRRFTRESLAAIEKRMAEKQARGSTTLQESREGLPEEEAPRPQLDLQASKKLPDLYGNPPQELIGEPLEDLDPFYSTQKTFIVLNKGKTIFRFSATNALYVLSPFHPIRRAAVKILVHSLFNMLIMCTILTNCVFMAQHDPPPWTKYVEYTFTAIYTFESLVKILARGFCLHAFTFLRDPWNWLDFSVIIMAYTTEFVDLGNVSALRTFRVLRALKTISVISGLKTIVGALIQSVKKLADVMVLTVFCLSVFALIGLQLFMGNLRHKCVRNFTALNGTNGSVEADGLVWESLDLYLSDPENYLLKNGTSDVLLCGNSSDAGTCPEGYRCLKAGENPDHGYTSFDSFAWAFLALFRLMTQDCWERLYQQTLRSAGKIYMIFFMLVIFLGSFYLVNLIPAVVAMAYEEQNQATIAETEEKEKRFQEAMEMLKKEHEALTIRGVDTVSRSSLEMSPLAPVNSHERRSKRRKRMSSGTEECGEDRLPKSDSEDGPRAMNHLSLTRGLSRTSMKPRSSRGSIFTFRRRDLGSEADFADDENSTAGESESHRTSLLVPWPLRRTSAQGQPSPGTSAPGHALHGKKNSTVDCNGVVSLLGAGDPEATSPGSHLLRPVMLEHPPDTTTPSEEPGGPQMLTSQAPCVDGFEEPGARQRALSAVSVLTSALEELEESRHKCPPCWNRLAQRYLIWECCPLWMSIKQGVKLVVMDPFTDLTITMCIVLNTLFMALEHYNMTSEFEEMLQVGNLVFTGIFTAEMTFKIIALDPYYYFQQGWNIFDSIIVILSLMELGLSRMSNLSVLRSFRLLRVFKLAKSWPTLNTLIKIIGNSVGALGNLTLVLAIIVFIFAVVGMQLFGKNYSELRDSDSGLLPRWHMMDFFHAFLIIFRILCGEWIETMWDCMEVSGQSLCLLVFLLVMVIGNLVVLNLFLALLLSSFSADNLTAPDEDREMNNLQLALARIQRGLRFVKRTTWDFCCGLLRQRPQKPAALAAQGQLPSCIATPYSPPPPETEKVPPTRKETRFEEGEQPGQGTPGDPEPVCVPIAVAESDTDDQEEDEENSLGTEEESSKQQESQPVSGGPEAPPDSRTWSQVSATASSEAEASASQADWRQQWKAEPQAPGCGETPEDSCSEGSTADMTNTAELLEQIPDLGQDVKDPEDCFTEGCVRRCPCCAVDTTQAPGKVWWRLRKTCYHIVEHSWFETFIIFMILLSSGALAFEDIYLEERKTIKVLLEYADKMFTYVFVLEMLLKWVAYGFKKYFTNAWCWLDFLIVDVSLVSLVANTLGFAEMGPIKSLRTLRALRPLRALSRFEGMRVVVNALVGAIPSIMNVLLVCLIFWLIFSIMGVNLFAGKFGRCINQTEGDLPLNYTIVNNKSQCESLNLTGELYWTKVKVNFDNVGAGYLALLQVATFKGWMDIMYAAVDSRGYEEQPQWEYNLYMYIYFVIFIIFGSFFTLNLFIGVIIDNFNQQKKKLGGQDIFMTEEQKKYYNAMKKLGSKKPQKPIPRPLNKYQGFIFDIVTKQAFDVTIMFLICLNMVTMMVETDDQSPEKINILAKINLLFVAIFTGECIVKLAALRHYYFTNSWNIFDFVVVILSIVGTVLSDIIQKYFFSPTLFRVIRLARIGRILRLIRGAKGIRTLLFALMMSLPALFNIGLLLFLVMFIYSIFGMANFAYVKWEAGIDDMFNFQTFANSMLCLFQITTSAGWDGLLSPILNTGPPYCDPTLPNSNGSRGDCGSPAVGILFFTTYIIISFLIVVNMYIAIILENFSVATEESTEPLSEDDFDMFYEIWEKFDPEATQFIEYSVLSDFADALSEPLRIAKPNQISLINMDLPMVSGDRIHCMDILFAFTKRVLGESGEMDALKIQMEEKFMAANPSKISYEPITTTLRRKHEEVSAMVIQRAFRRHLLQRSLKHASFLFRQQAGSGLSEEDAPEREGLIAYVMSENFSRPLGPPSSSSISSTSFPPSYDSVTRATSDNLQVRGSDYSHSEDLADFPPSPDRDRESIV

Compound: Cc1ccccc1OCC(N)c1ccccc1 (stereo not shown) [MexA2, 1-Phenyl-2-(o-tolyloxy)ethan-1-amine]
- preference of block between INaP and INaL (SCN5A L409P/R588 mutant): preferentially blocked INaP over INaL

Compound: COc1ccccc1OCC(O)CN1CCN(CC(=O)Nc2c(C)cccc2C)CC1 (stereo not shown) [ranolazine]
- general APD effect at low or high doses [1]: prolonged the APD at high doses
- APD change [2]: did not shorten APD and induced EADs at high doses
- suppression of spontaneous arrhythmia [2]: blocked arrhythmia only in the genetic LQT3 model
- suppression of ATX-II induced arrhythmia [3]: blocked arrhythmia only in the genetic LQT3 model

Compound: Cc1cccc(C)c1OCC(C)N (stereo not shown) [mexiletine, Mexiletine]
- APD change across LQT3 hiPSC-CM models [1]: substantially prolonged the AP in all hiPSC-CMs examined
- APD shortening in pharmacological LQT3 models [1]: not in all the pharmacological models
- general APD effect at low or high doses [1]: prolonged the APD at high doses
- APD change [2]: weakly
- proarrhythmic response (APD prolongation, EADs) (HD.CDI hiPSC-CMs): proarrhythmic response

Compound: Cc1cc(C)cc(OCC(N)c2ccccc2)c1 (stereo not shown) [MexA3]
- block of INaL (SCN5A L409P/R588 mutant): did not block INaL
- preference of block between INaP and INaL (SCN5A L409P/R588 mutant): preferentially blocked INaP over INaL

Compound: NC(COc1ccccc1C(F)(F)F)c1ccccc1 (stereo not shown) [MexA4, 1-Phenyl-2-(2-(trifluoromethyl)phenoxy)ethan-1-amine]
- proarrhythmic response (APD prolongation, EADs) (HD.CDI hiPSC-CMs): not proarrhythmic

Compound: FC(F)(F)Oc1ccc(-c2ccc3nnc(C(F)(F)F)n3c2)cc1 [GS-967]
- general APD effect at low or high doses [1]: most pronounced shortening at low doses
- suppression of spontaneous arrhythmia [2]: effective
- suppression of ATX-II induced arrhythmia [3]: effective

- asystole effect, change with N-ethyl methoxy substitution (HD.CDI hiPSC-CMs; high concentrations): decreased this effect
Compound: COCCNC(COc1cccc(C)c1C)c1ccccc1 (stereo not shown) [MexA5, 2-(2,3-dimethylphenoxy)-N-(2-methoxyethyl)-1-phenylethan-1-amine]
- general APD effect at low or high doses [1]: most pronounced shortening at low doses
- suppression of spontaneous arrhythmia [2]: terminated spontaneous arrhythmias
